Read-outs that look alike come from different tables or passages of the source.
Tests used:
consortium [1] = assay: Degradation of other N-alkyl dithiocarbamates by the consortium (1000 ml bioreactor); conditions: pH 7.2, 20-27° C.
Experimental: A 1000 ml bioreactor containing the synthetic medium (described above) has been inoculated with the consortium density of approximately 1.1×10^7 ml. The initial pH value was 7.2 and the temperature varied between 20-27° C. Dithiocarbamate concentration was measured spectrophometrically by complexing with cupric acetate and measuring the absorbance at 430 nm.

microbial consortium = conditions: soil
Experimental: One soil environment was inoculated with approximately 1.2×10^7 consortium members/g soil while the other remained uninoculated. Nitrogen and phosphorus was added to both systems. The initial soil pH was 6.8 and the temperature varied from 18° C. to 27° C. Water was added to maintain the dry weight at about 30%. Each soil system was mixed weekly to provide aeration.

consortium [2] = conditions: within 72 hour; waste wash-water about 1100 ppm SDM and dilution at 500 ppm, pH 7.8; 20% inoculum of 72 h consortium
Experimental: The sample, and a dilution of it at 500 ppm and pH 7.8, was inoculated with a 20% (VN) amount of a 72 h consortium. A control without inoculation was included.

CCCN(CCC)C(=S)[S-].[Na+] [DiPropyl Dithiocarbamate, Sodium Dipropyl dithiocarbamates]
% degradation (percent loss over the abiotic Control) (consortium [1]; time 0 h): 3.99%
% degradation (percent loss over the abiotic Control) (consortium [1]; time 0.5 h): 3.87%
% degradation (percent loss over the abiotic Control) (consortium [1]; time 1.5 h): 4.21%
% degradation (percent loss over the abiotic Control) (consortium [1]; time 4 h): 3.56%
% degradation (percent loss over the abiotic Control) (consortium [1]; time 5 h): 3.49%
% degradation (percent loss over the abiotic Control) (consortium [1]; time 7 h): 4.37%
% degradation (percent loss over the abiotic Control) (consortium [1]; time 27 h): 7.82%
% degradation (percent loss over the abiotic Control) (consortium [1]; time 51 h): 9.43%
% degradation (percent loss over the abiotic Control) (consortium [1]; time 73 h): 11.24%
% degradation (percent loss over the abiotic Control) (consortium [1]; time 96 h): 14.56%

CCCCN(CCCC)C(=S)[S-].[Na+] [Dibutyl Dithiocarbamate, Sodium Dibutyl dithiocarbamates]
% degradation (percent loss over the abiotic Control) (consortium [1]; time 0 h): 4.44%
% degradation (percent loss over the abiotic Control) (consortium [1]; time 0.5 h): 4.70%
% degradation (percent loss over the abiotic Control) (consortium [1]; time 1.5 h): 4.10%
% degradation (percent loss over the abiotic Control) (consortium [1]; time 4 h): 3.81%
% degradation (percent loss over the abiotic Control) (consortium [1]; time 5 h): 3.98%
% degradation (percent loss over the abiotic Control) (consortium [1]; time 7 h): 4.12%
% degradation (percent loss over the abiotic Control) (consortium [1]; time 27 h): 6.11%
% degradation (percent loss over the abiotic Control) (consortium [1]; time 51 h): 6.66%
% degradation (percent loss over the abiotic Control) (consortium [1]; time 73 h): 7.93%
% degradation (percent loss over the abiotic Control) (consortium [1]; time 96 h): 9.46%

CCN(CC)C(=S)S [Diethyl Dithiocarbamate, sodium diethyl dithiocarbamate]
% degradation (percent loss over the abiotic Control) (consortium [1]; time 0 h): 3.28%
% degradation (percent loss over the abiotic Control) (consortium [1]; time 0.5 h): 2.80%
% degradation (percent loss over the abiotic Control) (consortium [1]; time 1.5 h): 8.78%
% degradation (percent loss over the abiotic Control) (consortium [1]; time 4 h): 8.18%
% degradation (percent loss over the abiotic Control) (consortium [1]; time 5 h): 13.29%
% degradation (percent loss over the abiotic Control) (consortium [1]; time 7 h): 15.01%
% degradation (percent loss over the abiotic Control) (consortium [1]; time 27 h): 18.00%
% degradation (percent loss over the abiotic Control) (consortium [1]; time 51 h): 21.00%
% degradation (percent loss over the abiotic Control) (consortium [1]; time 73 h): 23.00%
% degradation (percent loss over the abiotic Control) (consortium [1]; time 96 h): 25.07%

CN(C)C(=S)[S-].[Na+] [SDM, Sodium dimethyl dithiocarbamate]
PERCENT degradation of SDM (microbial consortium; 100 mg SDM per kg soil, 1 d): 1.6%
PERCENT degradation of SDM (microbial consortium; 100 mg SDM per kg soil, 3 d): 18.3%
PERCENT degradation of SDM (microbial consortium; 100 mg SDM per kg soil, 7 d): 50.2%
PERCENT degradation of SDM (microbial consortium; 500 mg SDM per kg soil, 1 d): 6.2%
PERCENT degradation of SDM (microbial consortium; 500 mg SDM per kg soil, 3 d): 22.6%
PERCENT degradation of SDM (microbial consortium; 500 mg SDM per kg soil, 7 d): 63%
PERCENT degradation of SDM (microbial consortium; 1000 mg SDM per kg soil, 1 d): 4.8%
PERCENT degradation of SDM (microbial consortium; 1000 mg SDM per kg soil, 3 d): 16.3%
PERCENT degradation of SDM (microbial consortium; 1000 mg SDM per kg soil, 7 d): 39.7%
PERCENT degradation of SDM (microbial consortium; 1000 mg SDM per kg soil, 10 d): 48%
PERCENT degradation of SDM (microbial consortium; 1000 mg SDM per kg soil, 14 d): 72%
PERCENT degradation of SDM (microbial consortium; 1000 mg SDM per kg soil, 20 d): 76%
PERCENT degradation of SDM (microbial consortium; 2000 mg SDM per kg soil, 1 d): 3.9%
PERCENT degradation of SDM (microbial consortium; 2000 mg SDM per kg soil, 3 d): 12.4%
PERCENT degradation of SDM (microbial consortium; 2000 mg SDM per kg soil, 7 d): 26.7%
PERCENT degradation of SDM (microbial consortium; 2000 mg SDM per kg soil, 10 d): 32.1%
PERCENT degradation of SDM (microbial consortium; 2000 mg SDM per kg soil, 14 d): 47.6%
PERCENT degradation of SDM (microbial consortium; 2000 mg SDM per kg soil, 20 d): 54%
PERCENT degradation of SDM (microbial consortium; 2000 mg SDM per kg soil, 28 d): 58%
PERCENT degradation of SDM (microbial consortium; 5000 mg SDM per kg soil, 1 d): 5.2%
PERCENT degradation of SDM (microbial consortium; 5000 mg SDM per kg soil, 3 d): 3.1%
PERCENT degradation of SDM (microbial consortium; 5000 mg SDM per kg soil, 7 d): 2.3%
PERCENT degradation of SDM (microbial consortium; 5000 mg SDM per kg soil, 10 d): 1.8%
PERCENT degradation of SDM (microbial consortium; 5000 mg SDM per kg soil, 14 d): 3.6%
PERCENT degradation of SDM (microbial consortium; 5000 mg SDM per kg soil, 20 d): 1.8%
PERCENT degradation of SDM (microbial consortium; 5000 mg SDM per kg soil, 28 d): 3.2%
% degradation (percent loss over the abiotic Control) (consortium [1]; time 0.5 h): 8.1%
% degradation (percent loss over the abiotic Control) (consortium [1]; time 1.5 h): 9.5%
% degradation (percent loss over the abiotic Control) (consortium [1]; time 4 h): 12.3%
% degradation (percent loss over the abiotic Control) (consortium [1]; time 5 h): 12.1%
% degradation (percent loss over the abiotic Control) (consortium [1]; time 7 h): 27.1%
% degradation (percent loss over the abiotic Control) (consortium [1]; time 27 h): 61.4%
% degradation (percent loss over the abiotic Control) (consortium [1]; time 51 h): 77.8%
% degradation (percent loss over the abiotic Control) (consortium [1]; time 73 h): 88.7%
% degradation (percent loss over the abiotic Control) (consortium [1]; time 96 h): 97.5%
SDM degraded by the consortium (consortium [2]): ~100%
